Patent US20080108574A1, “MELANOCORTIN RECEPTOR MEDIATED MODULATION OF NEUROGENESIS” (BrainCells, Inc., priority 2006, published 2008)

How the values were obtained:
[1] = target: mGluR3 (Homo sapiens, UniProt Q14832); details: read-out: IC50 against mGluR3; cited from earlier work
[2] = system: Group I receptors; details: sub-mM concentrations; cited from earlier work
[3] = system: Group III receptors; details: sub-mM concentrations; cited from earlier work
[4] = target: mGluR2 (Homo sapiens, UniProt Q14416); details: read-out: IC50 against mGluR2; cited from earlier work
[5] = system: AMPA iGlu receptors; details: cited from earlier work
[6] = system: KA iGlu receptors; details: cited from earlier work
[7] = system: NMDA iGlu receptors; details: cited from earlier work
[8] = target: human mGlu2 (Homo sapiens, UniProt Q14416); details: in vitro, agonist; read-out: EC50 against human mGlu2 receptors; cited from earlier work
[9] = target: human mGlu3 (Homo sapiens, UniProt Q14832); details: in vitro, agonist; read-out: EC50 against human mGlu3 receptors; cited from earlier work
[10] = system: human neural stem cells (hNSCs)
Procedure: In one non-limiting example neurogenesis, a neurogenic response, and neurodifferentiation are all measured in an in vitro assay as follows. […] Mitogen-free test media with a positive control is used for neuronal differentiation, and basal media without growth factors serves as a negative control. Neurogenesis is determined, for example, by measuring the proliferation and/or differentiation of the hNSCs in the presence of varying concentrations of test compound compared to the absence of the test compound (negative control). […] Neurodifferentiation is measured, for example, by detecting neurodifferentiation specific expression markers which methods are known in the art.
(§1) A positive control for neuronal differentiation was used along with basal media without growth factors as a negative control.
as §1

Sequence of human mGlu2 (Q14416 19-872): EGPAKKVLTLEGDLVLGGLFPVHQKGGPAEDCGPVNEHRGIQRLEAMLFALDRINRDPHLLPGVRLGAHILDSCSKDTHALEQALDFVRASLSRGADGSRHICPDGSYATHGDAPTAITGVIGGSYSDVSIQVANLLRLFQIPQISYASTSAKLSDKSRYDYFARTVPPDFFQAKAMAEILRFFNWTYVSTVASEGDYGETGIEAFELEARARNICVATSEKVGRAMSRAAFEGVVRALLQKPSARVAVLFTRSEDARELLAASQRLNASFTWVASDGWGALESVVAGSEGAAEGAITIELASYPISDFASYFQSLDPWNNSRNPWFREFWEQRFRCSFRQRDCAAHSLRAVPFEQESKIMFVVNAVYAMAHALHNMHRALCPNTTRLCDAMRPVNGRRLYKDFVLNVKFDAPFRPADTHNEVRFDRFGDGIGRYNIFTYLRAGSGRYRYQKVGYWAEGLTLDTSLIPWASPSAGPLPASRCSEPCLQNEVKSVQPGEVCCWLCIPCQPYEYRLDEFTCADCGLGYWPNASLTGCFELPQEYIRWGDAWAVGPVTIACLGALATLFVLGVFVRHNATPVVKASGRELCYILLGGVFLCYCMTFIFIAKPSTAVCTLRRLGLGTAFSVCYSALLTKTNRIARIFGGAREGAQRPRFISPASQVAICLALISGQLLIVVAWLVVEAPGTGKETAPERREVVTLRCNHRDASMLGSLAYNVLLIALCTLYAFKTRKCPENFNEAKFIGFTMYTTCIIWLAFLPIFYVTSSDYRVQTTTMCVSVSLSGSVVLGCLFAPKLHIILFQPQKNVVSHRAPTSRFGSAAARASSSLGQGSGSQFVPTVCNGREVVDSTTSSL
Sequence of mGluR2 (Q14416 19-872): as above
Sequence of human mGlu3 (Q14832 23-879): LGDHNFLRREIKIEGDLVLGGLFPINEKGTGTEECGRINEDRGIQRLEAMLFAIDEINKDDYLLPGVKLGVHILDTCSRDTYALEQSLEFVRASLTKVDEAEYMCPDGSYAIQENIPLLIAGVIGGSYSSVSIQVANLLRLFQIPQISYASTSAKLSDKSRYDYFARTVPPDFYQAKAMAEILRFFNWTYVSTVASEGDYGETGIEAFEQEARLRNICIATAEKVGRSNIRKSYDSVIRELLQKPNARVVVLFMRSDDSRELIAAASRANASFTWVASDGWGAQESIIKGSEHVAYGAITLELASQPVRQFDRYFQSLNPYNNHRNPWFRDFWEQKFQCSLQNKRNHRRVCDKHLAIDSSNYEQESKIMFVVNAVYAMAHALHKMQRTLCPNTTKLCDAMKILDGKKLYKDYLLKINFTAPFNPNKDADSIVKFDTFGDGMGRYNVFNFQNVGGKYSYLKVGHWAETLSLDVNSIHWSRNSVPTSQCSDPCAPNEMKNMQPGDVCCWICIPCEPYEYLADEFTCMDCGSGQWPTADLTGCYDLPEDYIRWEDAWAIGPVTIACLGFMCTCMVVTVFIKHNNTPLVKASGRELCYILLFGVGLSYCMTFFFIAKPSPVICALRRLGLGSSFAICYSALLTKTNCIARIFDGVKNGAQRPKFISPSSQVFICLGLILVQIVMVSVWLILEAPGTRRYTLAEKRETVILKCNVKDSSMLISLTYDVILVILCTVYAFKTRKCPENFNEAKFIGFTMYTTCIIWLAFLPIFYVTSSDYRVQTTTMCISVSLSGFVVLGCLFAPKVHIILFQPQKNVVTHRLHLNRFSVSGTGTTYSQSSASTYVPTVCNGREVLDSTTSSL
Sequence of mGluR3 (Q14832 23-879): as above

## NC1(C(=O)O)CCc2cc(P(=O)(O)O)ccc21 (racemic) [APICA, (RS)-1-amino-5-phosphonoindan-1-carboxylic acid]
[1]
  IC50: ~30 µM
[2]
  activity against Group I receptors: no appreciable activity
[3]
  activity against Group III receptors: no appreciable activity
[4]
  IC50: ~30 µM

## N[C@](CC1c2ccccc2Oc2ccccc21)(C(=O)O)[C@H]1C[C@@H]1C(=O)O [LY341495, (2S)-2-amino-2-(1S,2S-2-carboxycycloprop-1-yl)-3-(xanth-9-yl)propanoic acid]
[5]
  activity against AMPA iGlu receptors: substantially inactive
[6]
  activity against KA iGlu receptors: substantially inactive
[7]
  activity against NMDA iGlu receptors: substantially inactive

## N[C@@]1(C(=O)O)CO[C@H]2[C@H](C(=O)O)[C@H]21 [LY379268, (−)-2-Oxa-4-aminobicyclohexane-4,6-dicarboxylic acid]
[8]
  EC50: < 10 nM
[9]
  EC50: < 10 nM

## Clc1ccc2c(c1)N=C(N1CCNCC1)c1ccccc1N2 [N-desmethylclozapine]
[10]; in assays as disclosed herein
  neurogenic activity: highly neurogenic

## CCCC[C@H](NC(C)=O)C(=O)N[C@H]1CC(=O)NCCCC[C@@H](C(=O)O)NC(=O)[C@H](Cc2c[nH]c3ccccc23)NC(=O)[C@H](CCCNC(=N)N)NC(=O)[C@@H](Cc2ccccc2)NC(=O)[C@H](Cc2c[nH]cn2)NC1=O [PT-141, bremelanotide]
[10]; hNSCs, dose response, TUJ-1 staining
  effect on neuronal differentiation: promoted neuronal differentiation
[10]; read-out: EC50, neuronal differentiation, hNSCs, percent of neuronal positive control, basal media values subtracted
  EC50: 200 nM
